Measured values taken from patent publication US11478460B2, “Diaryl substituted 6,5-fused ring compounds as C5aR inhibitors” (CHEMOCENTRYX, INC., priority 2017, dated 2022).

Each molecule was assayed against C5aR (Homo sapiens (Human), UniProt P21730) (assay: Chemotaxis assay using U937 cells (C5aR mediated migration)). Details: read-out: Mig IC50.
Sequence of C5aR (P21730 whole entry): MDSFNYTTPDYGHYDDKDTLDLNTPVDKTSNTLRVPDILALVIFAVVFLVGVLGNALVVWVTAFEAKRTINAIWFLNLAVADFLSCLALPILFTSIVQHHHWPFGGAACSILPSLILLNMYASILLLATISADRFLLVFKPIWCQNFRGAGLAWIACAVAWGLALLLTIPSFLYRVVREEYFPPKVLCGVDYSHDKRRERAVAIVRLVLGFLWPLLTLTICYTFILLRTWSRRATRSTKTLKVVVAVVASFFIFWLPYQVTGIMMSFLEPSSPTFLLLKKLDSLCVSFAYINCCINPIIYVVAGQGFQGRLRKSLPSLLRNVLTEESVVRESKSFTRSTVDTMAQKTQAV
Type: cell-based
Description: U937 cells are a monocytic cell line which express C5aR, and are available from ATCC (VA). These cells were cultured as a suspension in RPMI-1640 medium supplemented with 2 mM L-glutamine, 1.5 g/L sodium bicarbonate, 4.5 g/L glucose, 10 mM HEPES, 1 mM sodium pyruvate, and 10% FBS. Cells were grown under 5% CO2/95% air, 100% humidity at 37° C. and subcultured twice weekly at 1:6 (cells were cultured at a density range of 1×10^5 to 2×10^6 cells/mL) and harvested at 1×10^6 cells/mL. Prior to assay, cells are treated overnight with 0.5 mM of cyclic AMP (Sigma, OH) and washed once prior to use. cAMP treated U937 cells can be used in C5aR ligand binding and functional assays.
Optionally, compounds may be further assayed for their ability to inhibit chemotaxis in cells. Chemotaxis assays are performed using 5 μm pore polycarbonate, polyvinylpyrrolidone-coated filters in 96-well chemotaxis chambers (Neuroprobe; Gaithersburg, Md.) using chemotaxis buffer (Hank's balanced salt solution (HBSS) and 1% FBS). C5aR ligands (i.e., C5a, R&D Systems; Minneapolis, Minn.) are use to evaluate compound mediated inhibition of C5aR mediated migration. Other chemokines (i.e., SDF-1α; R&D Systems; Minneapolis, Minn.) are used as specificity controls. The lower chamber is loaded with 29 μl of chemokine (i.e., 0.03 nM C5a) and varying amounts of compound; the top chamber contains 100,000 U937 or neutrophil cells in 20 μl. The chambers are incubated 1.5 hours at 37° C., and the number of cells in the lower chamber quantified either by direct cell counts in five high powered fields per well or by the CyQuant assay (Molecular Probes), a fluorescent dye method that measures nucleic acid content and microscopic observation.
The compounds in Table 1, below, were prepared using the methods described above. Characterization data is provided for each compound listed. Activity is provided as follows for the chemotaxis assay using U937 cells as described herein (Example 12): +, 500 nM<IC50; ++, 50 nM<IC50≤500 nM; +++, 5 nM<IC50≤50 nM; and ++++, IC50≤5 nM.
Work on Cc1cnc(N2CCc3nn(-c4c(C)cccc4C)c(-c4cc(F)c(NC(N)=O)cc4F)c3C2)c(Cl)c1 [Example 1.115] yielded an IC50 of no more than 5 nM.
In the case of Cc1cccc(C)c1-n1nc2c(c1-c1cc(F)c(NC(=O)CN)cc1F)CN(c1ncc(Cl)cc1Cl)CC2 [Example 1.116], the IC50 is reported as greater than 500 nM.
Cc1cc(NC(N)=O)c(F)cc1-c1c2c(nn1-c1c(C)cccc1C)CCN(c1ccc(C(F)(F)F)cc1F)C2 [Example 1.117] showed an IC50 of no more than 5 nM.
Cc1cc(NC(N)=O)c(F)cc1-c1c2c(nn1-c1c(C)cccc1C)CCN(c1ccc(Cl)cc1Cl)C2 [Example 1.118] showed an IC50 of no more than 5 nM.
Cc1cccc(C)c1-n1nc2c(c1-c1cc(F)c(NC(N)=O)cc1F)CN(c1ccc(Cl)cc1Cl)CC2 [Example 1.119] showed an IC50 of no more than 5 nM.
Cc1cccc(C)c1-n1nc2c(c1-c1cc(F)c(N)cc1F)CN(c1ncc(Cl)cc1Cl)CC2 [Example 1.120] was tested, and the IC50 was greater than 500 nM.
Work on COc1cc(F)c(-c2c3c(nn2-c2c(C)cccc2C)CCN(c2ncc(Cl)cc2Cl)C3)cc1F [Example 1.121] yielded an IC50 greater than 500 nM.
Cc1cccc(C)c1-n1nc2c(c1-c1cc(F)c(NC(N)=O)cc1F)CN(c1ccc(C(F)(F)F)cc1F)CC2 [Example 1.122] was tested, and the IC50 was no more than 5 nM.
COc1cc(NC(N)=O)c(F)cc1-c1c2c(nn1-c1c(C)cccc1C)CCN(c1ncc(Cl)cc1Cl)C2 [Example 1.123] gave an IC50 of no more than 5 nM.
Cc1cccc(C)c1-n1nc2c(c1-c1cc(F)c(NC(N)=O)cc1F)CN(c1ncc(C3CC3)cc1Cl)CC2 [Example 1.124] was tested, and the IC50 was no more than 5 nM.
Molecule Cc1cccc(C)c1-n1nc2c(c1-c1cc(F)c(NC(=O)CO)cc1F)CN(c1ncc(Cl)cc1Cl)CC2 [Example 1.125] has an IC50 of 50 to 500 nM.
CC(=O)Nc1cc(F)c(-c2c3c(nn2-c2c(C)cccc2C)CCN(c2ncc(Cl)cc2Cl)C3)cc1F [Example 1.126] was tested, and the IC50 was 50 to 500 nM.
Cc1cccc(C)c1-n1nc2c(c1-c1cc(F)c(NC(N)=O)cc1F)CN(c1ncccc1Cl)CC2 [Example 1.127] showed an IC50 of no more than 5 nM.
Cc1cc(NC(N)=O)c(F)cc1-c1c2c(nn1-c1c(C)cccc1C)CCN(c1ncc(Cl)cc1Cl)C2 [Example 1.128] was tested, and the IC50 was no more than 5 nM.
In the case of Cc1cc(NC(N)=O)c(F)cc1-c1c2c(nn1-c1c(C)cccc1OCC(C)C)CCN(c1ncc(C(C)C)cc1F)C2 [Example 1.129], the IC50 is reported as no more than 5 nM.
COc1cc(NC(N)=O)c(F)cc1-c1c2c(nn1-c1c(C)cccc1OCC(C)C)CCN(c1ncc(C(C)C)cc1F)C2 [Example 1.130] showed an IC50 of no more than 5 nM.
In the case of COCC(c1ccccc1)N1CCc2nn(-c3c(C)cccc3OCC(C)C)c(-c3cc(F)c(NC(N)=O)cc3F)c2C1 (stereo not drawn) [Example 1.131], the IC50 is reported as no more than 5 nM.
Work on Cc1cccc(C)c1-n1nc2c(c1-c1cc(F)c(NC(N)=O)cc1F)CN(c1ncc(Cl)cc1F)CC2 [Example 1.132] yielded an IC50 of no more than 5 nM.
Cc1ccnc(C)c1-n1nc2c(c1-c1cc(F)c(NC(N)=O)cc1F)CN(C(C)(C)c1ccccc1)CC2 [Example 1.133] was tested, and the IC50 was 50 to 500 nM.
Work on Cc1cccc(OCC(C)C)c1-n1nc2c(c1-c1ccc(NC(N)=O)cc1)CN(C(C)(C)c1ccccc1)CC2 [Example 1.134] yielded an IC50 of 5 to 50 nM.
CCc1cccc(CC)c1-n1nc2c(c1-c1cc(F)c(NC(N)=O)cc1F)CN(C(C(N)=O)c1ccccc1)CC2 (stereo not drawn) [Example 1.135] was tested, and the IC50 was greater than 500 nM.
For CC(C)(c1ccccc1)N1CCc2nn(-c3ccccc3OCC(F)(F)F)c(-c3cc(F)c(NC(N)=O)cc3F)c2C1 [Example 1.136], the IC50 was no more than 5 nM.
In the case of Cc1cccc(OCC(C)C)c1-n1nc2c(c1-c1cc(F)c(NC(N)=O)cc1F)CN(c1ccnc(C(F)(F)F)n1)CC2 [Example 1.137], the IC50 is reported as no more than 5 nM.
CC(C)(c1ccccc1)N1CCc2nn(-c3ccccc3OC(F)(F)F)c(-c3cc(F)c(NC(N)=O)cc3F)c2C1 [Example 1.138] was tested, and the IC50 was no more than 5 nM.
Molecule Cc1cccc(OCC(C)C)c1-n1nc2c(c1-c1cc(F)c(NC(N)=O)cc1F)CN(c1ccnc(C(C)C)n1)CC2 [Example 1.139] has an IC50 of no more than 5 nM.
In the case of Cc1cccc(OCC(C)C)c1-n1nc2c(c1-c1cc(F)c(NC(N)=O)cc1F)CN(c1ncnc3cc[nH]c13)CC2 [Example 1.140], the IC50 is reported as greater than 500 nM.
For Cc1cccc(OCC(C)C)c1-n1nc2c(c1-c1cc(F)c(NC(N)=O)cc1F)CN(c1ncncc1Cl)CC2 [Example 1.141], the IC50 was no more than 5 nM.
